For experiment [1], the target named is T1, EPHA3 (Homo sapiens, UniProt P29320).
T1 construct: purchased DiscoveRx (Fremont, CA)
The experiment can be described thus: KinomeScan. The following applies: read-out: % Control. It is filed as binding.

The target of experiment [2] is T2, OX2 (Homo sapiens, UniProt O43614).
T2 construct: host or cells: Chem-1 cells expressing Gα15
The experiment is described as follows: GPCR Profiler. It counts as cell-based.

Experiment [3] addresses T3, MEK1 (Homo sapiens, UniProt Q02750).
T3 construct: purchased DiscoveRx (Fremont, CA)
The experiment is described as follows: KinomeScan. It is filed as binding. The following applies: read-out: % Control.

Experiment [4] addresses T4, ADRB2 (Homo sapiens, UniProt P07550).
T4 construct: host or cells: Chem-1 cells with promiscuous Gα15
The experiment can be described thus: GPCR Profiler. It is filed as cell-based.

For experiment [5], the target named is T5, MET(M1250T) (Homo sapiens, UniProt P08581, M1250T).
T5 construct: purchased DiscoveRx (Fremont, CA)
The experiment is described as follows: KinomeScan. It counts as binding. The following applies: read-out: % Control.

Experiment [6] has as its target T6, DYRK2 (Homo sapiens, UniProt Q92630).
T6 construct: purchased DiscoveRx (Fremont, CA), KinomeScan service
The experiment is described as follows: KinomeScan. It counts as binding. The following applies: read-out: % Control.

Experiment [7] deals with T7, MAK (Homo sapiens, UniProt P20794).
T7 construct: purchased DiscoveRx
The experiment can be described thus: KinomeScan. The following applies: read-out: % Control. It counts as binding.

Experiment [8] addresses T8, CAMK2G (Homo sapiens, UniProt Q13555).
T8 construct: purchased DiscoveRx (KinomeScan service)
The experiment is described as follows: KinomeScan. The following applies: read-out: % Control. It is filed as binding.

Experiment [9] has as its target T9, C5aR (Homo sapiens, UniProt P21730).
T9 construct: host or cells: Chem-1 cells with promiscuous Gα15
The experiment is described as follows: GPCR Profiler. It counts as cell-based.

For experiment [10], the target named is T10, MARK1 (Homo sapiens, UniProt Q9P0L2).
T10 construct: purchased DiscoveRx (Fremont, CA)
The experiment can be described thus: KinomeScan. It is filed as binding. The following applies: read-out: % Control.

Experiment [11] concerns the target T11, PTH2 (Homo sapiens, UniProt P49190).
T11 construct: host or cells: Chem-1 cells with Gα15
The experiment is described as follows: GPCR Profiler. It is filed as cell-based.

Experiment [12] concerns the target T12, AMPK-alpha2 (Homo sapiens, UniProt P54646).
T12 construct: purchased DiscoveRx (Fremont, CA)
The experiment can be described thus: KinomeScan. The following applies: read-out: % Control. It is filed as binding.

In experiment [13] the target is T13, D4 (Homo sapiens, UniProt P21917).
T13 construct: host or cells: Chem-1 cells expressing Gα15
The experiment can be described thus: GPCR Profiler. It counts as cell-based.

Experiment [14] deals with T14, TEC (Homo sapiens, UniProt P42680).
T14 construct: purchased DiscoveRx (Fremont, CA)
The experiment is described as follows: KinomeScan. It is filed as binding. The following applies: read-out: % Control.

For experiment [15], the target named is T15, RPS6KA4(Kin.Dom.1-N-terminal) (Homo sapiens, UniProt O75676).
T15 construct: RPS6KA4(Kin.Dom.1-N-terminal); purchased DiscoveRx (Fremont, CA)
The experiment is described as follows: KinomeScan. It is filed as binding. The following applies: read-out: % Control.

In experiment [16] the target is T16, MYO3B (Homo sapiens, UniProt Q8WXR4).
T16 construct: purchased DiscoveRx
The experiment is described as follows: KinomeScan. The following applies: read-out: % Control. It counts as binding.

In experiment [17] the target is T17, AURKA (Homo sapiens, UniProt O14965).
T17 construct: purchased DiscoveRx (Fremont, CA)
The experiment is described as follows: KinomeScan. It counts as binding. The following applies: read-out: % Control.

Experiment [18] addresses T18, IKK-beta (Homo sapiens, UniProt O14920).
T18 construct: purchased DiscoveRx (Fremont, CA)
The experiment is described as follows: KinomeScan. It counts as binding. The following applies: read-out: % Control.

For experiment [19], the target named is T19, FLT4 (Homo sapiens, UniProt P35916).
T19 construct: purchased DiscoveRx (Fremont, CA)
The experiment is described as follows: KinomeScan. It counts as binding. The following applies: read-out: % Control.

Experiment [20] has as its target T20, SIK (Homo sapiens, UniProt P57059).
T20 construct: purchased DiscoveRx (Fremont, CA)
The experiment is described as follows: KinomeScan. The following applies: read-out: % Control. It counts as binding.

The subject of experiment [21] is PC-3. The experiment can be described thus: Cell Titer-Glo viability, Prostate adenocarcinoma. It counts as cell-based. The following applies: for CC50: Homo sapiens, read-out: LC50 (the source's name). As for the experimental part:
(§1) OGM2 kills wide variety of cancer cell types. Cell sensitivity can be classified in to Very Sensitive (LC50<2 μM), Sensitive (LC50=2 to 10 μM), Mildly Sensitive (LC50>10 μM), and Refractory (no killing at 10 μM). The listed established cell were incubated with OGM2 at 2 μM or 10 μM for 72 hours under standard cell culture conditions, and relative cell number was assessed using Cell Titer-Glo Luminescent Cell Viability Assay (Promega™) following the manufacturer's instructions. Luminescence was determined using a Cytation 5 reader and Gen5 software package (BioTek™).
(§2) Cancer cells, which are very sensitive to killing by OGM2 (LCs <2 μM), with reported mRNA expression of GPR68 and the related proton sensing receptor GPR4. LC50's (concentrations causing 50% lethality) were determined using CellTiter-Glo (Promega™, G7570). Cells were plated in 12-well plates (CELLTREAT Scientific Products, 229112) in 1 ml of DMEM with high glucose, GlutaMAX, HEPES, or RPMI 1640 with Penicillin-Streptomycin (ThermoFisher™, 10564029, 11875119 and 15140122) and 10% FBS. Cells were incubated overnight at 37° C. in 5% CO2. Then 1 mL of fresh media was added with DMSO, OGM, or positive control (Erastin; APExBIO Technology, LLC, B1524) and cells incubated for 3 days. On the third day, all media was removed, cells were rinsed with 1×PBS, PBS was removed, and 200 μL of 1× Passive Lysis Buffer (Promega™, E1941) was added to each well. […]. Subsequently, 20 μL of lysate was added to 100 μL CellTiter-Glo™ reagent on a LUMITRAC 200 plate (Greiner™ bio-one, 82050-726). Plates were briefly spun down and read on a GloMax-Multi Detection System (Promega™).
(§3) The cells listed in the tables above were incubated with OGM2 at 2 μM or 10 μM for 72 hours under standard cell culture conditions, and relative cell number was assessed using Cell Titer-Glo Luminescent Cell Viability Assay (Promega™) following the manufacturer's instructions. Luminescence was determined using a Cytation 5 reader and Gen5 software package (BioTek™). RNA expression of GPR68 and GPR4 in the corresponding cancer cell lines are listed, according to the publicly available The Human Protein Atlas version 22.0 and Ensembl version 103.38 (see proteinatlas.org). The consensus normalized expression value (“nTPM”=normalize transcript per million) was calculated as the maximum nTPM value for each gene in the two data sources.

The test system of experiment [22] is DU 145. The experiment is described as follows: Cell Titer-Glo viability, Prostate adenocarcinoma. It counts as cell-based. The following applies: for CC50: Homo sapiens, read-out: LC50 (the source's name). The method, then: as §1, §2, §3

Where two headings read alike, the source gives them in different places.

T11 sequence (P49190 25-550): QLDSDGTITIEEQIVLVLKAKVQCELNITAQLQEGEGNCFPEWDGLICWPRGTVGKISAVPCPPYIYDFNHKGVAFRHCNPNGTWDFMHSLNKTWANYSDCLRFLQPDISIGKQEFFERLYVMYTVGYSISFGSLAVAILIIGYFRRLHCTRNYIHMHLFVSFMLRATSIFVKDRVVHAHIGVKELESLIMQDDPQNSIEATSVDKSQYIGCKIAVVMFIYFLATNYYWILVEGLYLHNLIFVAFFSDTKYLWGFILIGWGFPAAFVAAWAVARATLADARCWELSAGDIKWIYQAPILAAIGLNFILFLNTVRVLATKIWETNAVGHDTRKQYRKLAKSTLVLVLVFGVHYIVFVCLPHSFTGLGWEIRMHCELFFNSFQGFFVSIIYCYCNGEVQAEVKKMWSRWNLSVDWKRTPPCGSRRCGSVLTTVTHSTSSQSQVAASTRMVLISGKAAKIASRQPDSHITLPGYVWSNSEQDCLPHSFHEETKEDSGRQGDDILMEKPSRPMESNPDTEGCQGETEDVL
T13 sequence (P21917 whole entry): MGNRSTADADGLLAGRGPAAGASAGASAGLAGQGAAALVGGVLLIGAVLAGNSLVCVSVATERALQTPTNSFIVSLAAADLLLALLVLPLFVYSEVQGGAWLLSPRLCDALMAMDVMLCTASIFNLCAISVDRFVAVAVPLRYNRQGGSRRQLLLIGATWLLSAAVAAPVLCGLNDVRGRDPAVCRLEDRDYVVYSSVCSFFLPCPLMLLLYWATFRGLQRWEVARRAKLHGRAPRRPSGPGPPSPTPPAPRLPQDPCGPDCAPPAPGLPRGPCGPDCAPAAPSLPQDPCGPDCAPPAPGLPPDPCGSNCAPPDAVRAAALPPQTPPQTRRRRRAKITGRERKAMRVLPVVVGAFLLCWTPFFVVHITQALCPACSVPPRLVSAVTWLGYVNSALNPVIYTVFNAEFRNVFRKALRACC
T9 sequence (P21730 whole entry, species assumed): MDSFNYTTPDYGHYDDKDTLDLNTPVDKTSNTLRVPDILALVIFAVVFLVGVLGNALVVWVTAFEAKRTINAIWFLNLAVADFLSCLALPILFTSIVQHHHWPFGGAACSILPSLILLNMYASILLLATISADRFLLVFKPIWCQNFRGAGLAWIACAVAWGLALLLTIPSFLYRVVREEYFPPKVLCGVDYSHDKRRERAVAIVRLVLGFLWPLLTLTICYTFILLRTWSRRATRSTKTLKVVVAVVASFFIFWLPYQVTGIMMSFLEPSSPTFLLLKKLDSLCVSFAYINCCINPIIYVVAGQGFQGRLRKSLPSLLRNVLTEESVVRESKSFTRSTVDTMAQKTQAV
T4 sequence (P07550 whole entry, species assumed): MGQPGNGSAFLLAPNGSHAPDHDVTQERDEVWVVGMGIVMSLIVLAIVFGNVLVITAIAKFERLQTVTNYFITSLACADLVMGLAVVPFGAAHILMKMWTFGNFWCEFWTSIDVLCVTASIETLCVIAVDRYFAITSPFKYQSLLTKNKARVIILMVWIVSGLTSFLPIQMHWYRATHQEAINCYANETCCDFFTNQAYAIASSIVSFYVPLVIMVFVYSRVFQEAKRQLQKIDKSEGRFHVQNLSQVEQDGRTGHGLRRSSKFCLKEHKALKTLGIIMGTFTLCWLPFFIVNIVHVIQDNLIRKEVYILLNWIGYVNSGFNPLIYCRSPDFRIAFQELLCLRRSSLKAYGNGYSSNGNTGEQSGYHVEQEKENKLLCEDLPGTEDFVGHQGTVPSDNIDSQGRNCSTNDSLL
T2 sequence (O43614 whole entry): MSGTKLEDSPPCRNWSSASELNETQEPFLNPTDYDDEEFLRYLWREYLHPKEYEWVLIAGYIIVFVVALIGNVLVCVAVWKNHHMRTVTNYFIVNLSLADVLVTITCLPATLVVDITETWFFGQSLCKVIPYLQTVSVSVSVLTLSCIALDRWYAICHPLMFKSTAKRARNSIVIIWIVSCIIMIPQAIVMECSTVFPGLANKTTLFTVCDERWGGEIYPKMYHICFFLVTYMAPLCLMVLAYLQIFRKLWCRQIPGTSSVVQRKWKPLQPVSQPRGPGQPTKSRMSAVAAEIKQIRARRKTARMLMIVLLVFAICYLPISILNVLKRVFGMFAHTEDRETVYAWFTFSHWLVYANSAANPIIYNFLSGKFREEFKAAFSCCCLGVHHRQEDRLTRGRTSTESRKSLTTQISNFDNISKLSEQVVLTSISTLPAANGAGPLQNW
T5 sequence (P08581 25-1390 M1250T): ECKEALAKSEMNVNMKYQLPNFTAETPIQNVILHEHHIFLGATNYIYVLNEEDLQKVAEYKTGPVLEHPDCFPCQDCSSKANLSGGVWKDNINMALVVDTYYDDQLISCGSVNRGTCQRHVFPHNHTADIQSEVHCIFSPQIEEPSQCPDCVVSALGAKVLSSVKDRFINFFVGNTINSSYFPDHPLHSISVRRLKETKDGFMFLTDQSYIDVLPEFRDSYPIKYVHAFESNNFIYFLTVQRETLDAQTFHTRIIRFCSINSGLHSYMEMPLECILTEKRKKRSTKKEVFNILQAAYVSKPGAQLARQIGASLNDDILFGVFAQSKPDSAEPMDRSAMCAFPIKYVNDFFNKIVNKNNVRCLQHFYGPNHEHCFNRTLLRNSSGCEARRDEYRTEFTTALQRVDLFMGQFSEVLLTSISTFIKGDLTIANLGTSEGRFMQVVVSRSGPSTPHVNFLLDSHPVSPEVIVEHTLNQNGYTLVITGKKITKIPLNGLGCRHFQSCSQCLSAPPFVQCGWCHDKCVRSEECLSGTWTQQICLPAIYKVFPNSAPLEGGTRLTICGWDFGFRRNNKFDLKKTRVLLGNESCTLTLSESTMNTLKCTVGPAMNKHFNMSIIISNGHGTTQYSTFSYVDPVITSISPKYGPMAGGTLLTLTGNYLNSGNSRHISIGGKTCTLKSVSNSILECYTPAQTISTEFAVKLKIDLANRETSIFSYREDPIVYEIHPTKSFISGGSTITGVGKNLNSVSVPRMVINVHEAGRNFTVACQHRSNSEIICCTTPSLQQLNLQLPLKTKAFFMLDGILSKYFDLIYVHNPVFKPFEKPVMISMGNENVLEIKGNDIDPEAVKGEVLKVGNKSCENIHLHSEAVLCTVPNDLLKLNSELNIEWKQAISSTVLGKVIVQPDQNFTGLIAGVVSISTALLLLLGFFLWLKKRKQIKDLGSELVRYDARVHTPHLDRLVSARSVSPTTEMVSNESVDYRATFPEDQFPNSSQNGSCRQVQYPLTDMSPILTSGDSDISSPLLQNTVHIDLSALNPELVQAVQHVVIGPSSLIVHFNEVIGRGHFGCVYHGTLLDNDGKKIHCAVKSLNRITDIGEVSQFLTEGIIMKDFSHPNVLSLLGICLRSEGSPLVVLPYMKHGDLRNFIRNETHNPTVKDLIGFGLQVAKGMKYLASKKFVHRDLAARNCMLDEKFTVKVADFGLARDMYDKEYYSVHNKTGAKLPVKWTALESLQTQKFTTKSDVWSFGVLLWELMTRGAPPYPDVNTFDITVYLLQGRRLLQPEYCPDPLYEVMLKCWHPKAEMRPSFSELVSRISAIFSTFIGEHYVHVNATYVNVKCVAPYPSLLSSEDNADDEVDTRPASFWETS
T10 sequence (Q9P0L2 whole entry): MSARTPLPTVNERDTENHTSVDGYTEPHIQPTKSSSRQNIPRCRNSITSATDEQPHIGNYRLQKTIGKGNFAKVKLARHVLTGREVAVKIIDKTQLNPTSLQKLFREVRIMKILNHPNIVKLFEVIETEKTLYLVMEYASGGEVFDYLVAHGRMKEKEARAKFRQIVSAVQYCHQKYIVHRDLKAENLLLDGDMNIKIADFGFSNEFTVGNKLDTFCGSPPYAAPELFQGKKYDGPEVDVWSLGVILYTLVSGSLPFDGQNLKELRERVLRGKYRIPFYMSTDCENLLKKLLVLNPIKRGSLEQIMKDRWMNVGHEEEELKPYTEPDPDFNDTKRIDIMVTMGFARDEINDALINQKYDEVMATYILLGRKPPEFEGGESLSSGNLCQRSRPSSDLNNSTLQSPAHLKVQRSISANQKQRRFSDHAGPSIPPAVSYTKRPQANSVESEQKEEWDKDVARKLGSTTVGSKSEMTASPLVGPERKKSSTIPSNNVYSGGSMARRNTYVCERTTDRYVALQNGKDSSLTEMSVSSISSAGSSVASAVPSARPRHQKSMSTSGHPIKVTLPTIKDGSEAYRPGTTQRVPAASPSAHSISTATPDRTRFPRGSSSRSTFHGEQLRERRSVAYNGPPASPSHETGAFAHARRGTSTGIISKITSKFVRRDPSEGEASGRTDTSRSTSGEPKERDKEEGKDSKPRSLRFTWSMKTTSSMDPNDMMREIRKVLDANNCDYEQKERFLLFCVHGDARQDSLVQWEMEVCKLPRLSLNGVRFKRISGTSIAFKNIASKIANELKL
T7 sequence (P20794 whole entry): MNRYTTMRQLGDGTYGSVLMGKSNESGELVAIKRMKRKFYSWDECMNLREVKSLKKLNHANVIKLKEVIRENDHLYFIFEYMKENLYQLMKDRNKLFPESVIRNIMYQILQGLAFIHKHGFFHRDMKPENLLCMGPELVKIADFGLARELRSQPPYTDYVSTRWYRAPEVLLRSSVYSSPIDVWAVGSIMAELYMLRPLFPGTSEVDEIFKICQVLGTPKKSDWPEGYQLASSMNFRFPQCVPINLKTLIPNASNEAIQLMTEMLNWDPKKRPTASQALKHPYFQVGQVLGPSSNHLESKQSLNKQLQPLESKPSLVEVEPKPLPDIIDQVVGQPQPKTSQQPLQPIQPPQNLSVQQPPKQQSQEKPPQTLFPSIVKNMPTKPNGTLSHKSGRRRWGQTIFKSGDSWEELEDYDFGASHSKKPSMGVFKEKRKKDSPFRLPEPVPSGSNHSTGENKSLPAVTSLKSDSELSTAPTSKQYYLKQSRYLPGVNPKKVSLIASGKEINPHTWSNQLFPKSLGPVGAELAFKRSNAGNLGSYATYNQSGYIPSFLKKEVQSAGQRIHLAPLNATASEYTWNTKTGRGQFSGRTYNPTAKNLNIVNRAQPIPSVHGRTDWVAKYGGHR

In the case of `CCc1ccc2c(c1)C1(NN=C(c3cccc4ccccc34)S1)C(=O)N2` (stereo not drawn) [OGM1, 5-ethyl-5′-naphthalen-1-ylspiro[1H-indole-3,2′-3H-1,3,4-thiadiazole]-2-one], the remaining binding at 10 µM was 78% in experiment [1]; 84% in experiment [3]; 68% in experiment [5]; 91% in [6]; 90% in experiment [7]; 85% in experiment [8]. Besides, the remaining binding at 10 µM in experiment [10] amounted to 100%; in experiment [12] it was 100%; in [14], 93%; in experiment [15], 92%; in experiment [16], 100%; in experiment [17] it was 100%. Besides, the remaining binding at 10 µM turned out to be 92% in [18], 100% in experiment [19] and 95% in [20]. The Antagonism in [2] (10 uM) is given as −3.4; in experiment [4] (10 uM), −9.5; in [9] (10 uM) it was −0.7; in experiment [11] (10 uM), −19.2; in experiment [13] (10 uM), −16.3. Moreover, the Agonism is reported as 0.2 in experiment [2] (12.5 uM); −0.1 in experiment [4] (12.5 uM); 3.1 in experiment [9] (12.5 uM); 1.1 in experiment [11] (12.5 uM); 0.6 in experiment [13] (12.5 uM).
With `CCc1ccc2c(c1)C1(NN=C(c3ccccc3)S1)C(=O)N2` (stereo not drawn) [OGM2], the Class entry in [21] was “Mildly”; in experiment [21] (Table 13) it was “Low”. Also, the “% Survival 2 μM OGM” value in experiment [21] (72 hours) was 101.3%; in [21] (PC-3 cells, 2 μM, 72 hours, Cell Titer-Glo) it was 101.3%; in [22] (72 hours), 44.2%; in experiment [22] (DU 145 cells, 2 μM, 72 hours, Cell Titer-Glo) it was 44.2%. Also, the “% Survival 10 μM OGM” value in [21] (72 hours) amounted to 74.5%; in [21] (PC-3 cells, 10 μM, 72 hours, Cell Titer-Glo), 74.5%; in [22] (72 hours), 22.2%; in experiment [22] (DU 145 cells, 10 μM, 72 hours, Cell Titer-Glo), 22.2%. Further, the CC50 in experiment [21] (PC-3, 72 hours) is above 10 µM; in experiment [21] (PC-3 cells, concentration causing 50% lethality) it was above 10 µM; in experiment [22] (DU-145, 72 hours) it was below 2 µM; in [22] (DU 145 cells, concentration causing 50% lethality), below 2 µM.

The values above are taken from patent US20240327364A1, “THERAPEUTIC TARGETING OF GPR68 TO INDUCE FERROPTOSIS” (University Of Maryland, Baltimore, priority 2023, published 2024).
